Measurements reported in patent US7465857B1, “Glyphosate tolerant perennial ryegrass” (priority 2004, dated 2008).
Read-outs that look alike come from different tables or passages of the source.

Legend:
Peak = experiment: Field trial Florence, S.C.: glyphosate tolerance, turf damage and turf quality; format: in vivo, perennial ryegrass; settings: 40 days after first application, scale 1-9, 9=perfect turf
From the text: (§1) This example provides methods and results of field trials in which the glyphosate tolerance characteristics of BAR Lp 2703 were examined and compared with Peak perennial ryegrass in Florence, S.C.
(§2) Peak and LP2703 perennial ryegrasses were overseeded at 350 lb/acre on dormant Bermuda grass base on Oct. 7, 2003. Turf quality was rated 7 times between Nov. 10, 2003 and Mar. 2, 2004. Turf quality fluctuated between 6.0 and 7.5 with changes in weather and fertilization (rated on a scale of 1-9 with 1=bare soil and 9=perfect turf).
(§3) Experimental treatments were 0, 3, 5, 6, 8, 10, and 16 ounces Roundup PROS per acre. One application of each treatment was applied on Mar. 12, 2004 to plots 3 feet wide by 6 feet long. The 3 and 6 oz/acre treatments were applied a second time on Mar. 28, 2004. There were two replications of each treatment applied to each cultivar. Applications were made in 2 gallons of water per 1000 square feet with a CO2-charged backpack sprayer.
(§4) Turf damage was rated on a scale of 0-9 with 0=no damage and 9=complete damage 7, 14, and 21 days after the first spray. Damage was not evident prior to 7 days.
(§5) The ratings shown in Table 10 were obtained 40 days after the first application of glyphosate (24 days after 2nd application).

EK-2703 (BAR Lp 2703) = format: in vivo, Lolium perenne; settings: Average June/July 1998, 9=completely green
Method: The mean turf color rating for the BAR LP 2703 variety in this perennial ryegrass turf trial that was seeded in the spring of 1998 (at 16 kg/ha) in Wolfheze was 7.6 in June/July 1998 (9=completely green).

BAR Lp 2703 = format: in vivo, Lolium perenne; settings: 40 days after first application, scale 1-9, 9=perfect turf
From the text: as §1, §2, §3, §4, §5

O=C(O)CNCP(=O)(O)O [Glyphosate, N-(phosphonomethyl) glycine]
Turf quality ratings (Peak; 3 oz/acre twice): 5.4 | Turf quality ratings (Peak; 5 oz/acre): 6.8 | Turf quality ratings (Peak; 6 oz/acre twice): 2.5 | Turf quality ratings (Peak; 8 oz/acre): 7.7 | Turf quality ratings (Peak; 10 oz/acre): 7.0 | Turf quality ratings (Peak; 16 oz/acre): 5.9 | Turf Color After Spraying (EK-2703 (BAR Lp 2703)): 7.6 | Turf quality ratings (BAR Lp 2703; 3 oz/acre twice): 6.4 | Turf quality ratings (BAR Lp 2703; 5 oz/acre): 7.3 | Turf quality ratings (BAR Lp 2703; 6 oz/acre twice): 5.8 | Turf quality ratings (BAR Lp 2703; 8 oz/acre): 7.8 | Turf quality ratings (BAR Lp 2703; 10 oz/acre): 8.0 | Turf quality ratings (BAR Lp 2703; 16 oz/acre): 6.5
